Key:
[1] = molecular target: Alpha-1A adrenergic receptor (Homo sapiens) (UniProt P35348); details: Compound concentration 10.0 uM
[2] = species on record: Rattus norvegicus; details: Compound concentration 10.0 uM
[3] = molecular target: Ribosomal protein S6 kinase alpha-5 (Homo sapiens) (UniProt O75582); test: MSK1 (h) Millipore kinase activity assay; details: Compound concentration 1.0 uM
[4] = molecular target: L-type calcium channel, dihydropyridine site (Cav1.2 alpha-1C) (Homo sapiens, UniProt Q13936); test: Inhibition of Calcium Channel L-Type, Dihydropyridine at 10 µM in the Eurofins-Panlabs radioligand binding assay (Eurofins_assay_214600); design: ligand concentration 0.1 nM, non-specific ligand with concentration 1 µM Nitrendipine, incubation time 90 min, incubation temperature 25 °C; details: Wistar, rat, rat cerebral cortex preparation, probe [3H] Nitrendipine; compound concentration 10 uM; target entry is the homologue from another species
[5] = molecular target: Protein-tyrosine kinase 2-beta (Homo sapiens) (UniProt Q14289); test: Pyk2 (h) Millipore kinase activity assay; details: Compound concentration 1.0 uM
[6] = molecular target: Serine/threonine-protein kinase pim-1 (Homo sapiens) (UniProt P11309); test: Pim-1 (h) Millipore kinase activity assay; details: Compound concentration 1.0 uM
Chain of Serine/threonine-protein kinase pim-1 (Homo sapiens) (P11309 whole entry, looked up): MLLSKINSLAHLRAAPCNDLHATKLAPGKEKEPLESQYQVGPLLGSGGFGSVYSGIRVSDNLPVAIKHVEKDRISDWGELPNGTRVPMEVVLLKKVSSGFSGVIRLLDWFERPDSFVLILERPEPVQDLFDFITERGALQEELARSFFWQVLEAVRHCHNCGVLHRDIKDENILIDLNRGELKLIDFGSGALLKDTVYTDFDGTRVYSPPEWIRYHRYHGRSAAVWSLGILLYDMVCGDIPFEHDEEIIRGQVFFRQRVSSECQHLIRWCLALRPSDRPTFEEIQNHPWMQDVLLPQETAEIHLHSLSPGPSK

[7] = molecular target: Ribosomal protein S6 kinase alpha-6 (Homo sapiens) (UniProt Q9UK32); test: Rsk4 (h) Millipore kinase activity assay; details: Compound concentration 1.0 uM
[8] = molecular target: Phosphorylase b kinase gamma catalytic chain, liver/testis isoform (Homo sapiens) (UniProt P15735); test: PhKgamma2 (h) Millipore kinase activity assay; details: Compound concentration 1.0 uM
[9] = molecular target: Dual specificity mitogen-activated protein kinase kinase 6 (Homo sapiens) (UniProt P52564); test: MKK6 (h) Millipore kinase activity assay; details: Compound concentration 1.0 uM
[10] = molecular target: Cysteinyl leukotriene receptor 1 (Homo sapiens) (UniProt Q9Y271); test: Inhibition of Leukotriene, Cysteinyl CysLT1 at 10 µM in the Eurofins-Panlabs radioligand binding assay (Eurofins_assay_250460); design: ligand concentration 0.3 nM, non-specific ligand with concentration 0.3 µM Leukotriene D4, incubation time 30 min, incubation temperature 25 °C; details: Compound concentration 10.0 uM
[11] = molecular target: Serine/threonine-protein kinase DCLK2 (Homo sapiens) (UniProt Q8N568); test: DCAMKL2 (h) Millipore kinase activity assay; details: Compound concentration 1.0 uM
[12] = molecular target: Serine/threonine-protein kinase TAO1 (Homo sapiens) (UniProt Q7L7X3); test: TAO1 (h) Millipore kinase activity assay; details: Compound concentration 1.0 uM
[13] = species on record: Rattus norvegicus; test: Inhibition of Glutamate, NMDA, Phencyclidine at 10 µM in the Eurofins-Panlabs radioligand binding assay (Eurofins_assay_233000); assay type: protein-complex assay; details: Compound concentration 10.0 uM
[14] = molecular target: Serine/threonine-protein kinase Chk2 (Homo sapiens) (UniProt O96017); test: CHK2 (h) Millipore kinase activity assay; details: Compound concentration 1.0 uM
Chain of Serine/threonine-protein kinase Chk2 (Homo sapiens) (O96017 whole entry, canonical isoform): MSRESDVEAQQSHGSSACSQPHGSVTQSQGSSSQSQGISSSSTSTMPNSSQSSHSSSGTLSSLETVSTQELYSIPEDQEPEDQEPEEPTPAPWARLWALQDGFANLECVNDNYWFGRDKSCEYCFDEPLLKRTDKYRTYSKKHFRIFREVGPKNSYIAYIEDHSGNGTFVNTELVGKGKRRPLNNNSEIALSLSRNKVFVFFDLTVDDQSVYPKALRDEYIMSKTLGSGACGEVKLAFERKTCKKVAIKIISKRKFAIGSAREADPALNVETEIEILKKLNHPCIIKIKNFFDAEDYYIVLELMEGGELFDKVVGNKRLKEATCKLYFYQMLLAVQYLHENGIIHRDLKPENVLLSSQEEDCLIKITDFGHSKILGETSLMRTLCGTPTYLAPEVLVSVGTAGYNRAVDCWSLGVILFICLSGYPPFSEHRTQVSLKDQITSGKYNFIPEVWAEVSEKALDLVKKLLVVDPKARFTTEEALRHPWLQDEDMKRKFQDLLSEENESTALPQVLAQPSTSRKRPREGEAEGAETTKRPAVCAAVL

[15] = molecular target: Casein kinase I isoform gamma-1 (Homo sapiens) (UniProt Q9HCP0); test: CK1gamma1 (h) Millipore kinase activity assay; details: Compound concentration 1.0 uM
Chain of Casein kinase I isoform gamma-1 (Homo sapiens) (Q9HCP0 whole entry, looked up, canonical isoform): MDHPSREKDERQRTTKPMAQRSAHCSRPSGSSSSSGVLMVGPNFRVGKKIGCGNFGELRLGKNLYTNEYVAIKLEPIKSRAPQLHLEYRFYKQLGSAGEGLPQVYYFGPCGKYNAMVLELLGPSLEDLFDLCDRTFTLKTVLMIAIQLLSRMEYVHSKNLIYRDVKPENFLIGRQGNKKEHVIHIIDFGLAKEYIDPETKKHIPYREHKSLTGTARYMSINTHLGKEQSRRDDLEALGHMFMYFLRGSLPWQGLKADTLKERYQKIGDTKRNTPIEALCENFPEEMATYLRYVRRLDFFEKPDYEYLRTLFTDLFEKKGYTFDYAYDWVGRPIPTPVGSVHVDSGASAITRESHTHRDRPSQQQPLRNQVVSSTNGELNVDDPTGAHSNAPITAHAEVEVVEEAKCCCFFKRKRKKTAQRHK

[16] = molecular target: Dual specificity mitogen-activated protein kinase kinase 1 (Homo sapiens) (UniProt Q02750); details: Compound concentration 1000.0 nM
[17] = molecular target: 5-hydroxytryptamine receptor 2C (Homo sapiens, UniProt P28335); test: GPCRScan assay: inhibition of 5-HT2C; design: radioligand conc. used [nm] 1.0 – 2.5, parental cells HEK T
[18] = molecular target: Serine/threonine-protein kinase 32C (Homo sapiens) (UniProt Q86UX6); details: Compound concentration 1000.0 nM
[19] = molecular target: Tyrosine-protein kinase CSK (Homo sapiens) (UniProt P41240); details: Compound concentration 1000.0 nM
[20] = system: Mast/stem cell growth factor receptor Kit (Homo sapiens), P10721 [V559D]; details: Compound concentration 1000.0 nM
Chain of Mast/stem cell growth factor receptor Kit (Homo sapiens), P10721 [V559D] (P10721 whole entry V559D): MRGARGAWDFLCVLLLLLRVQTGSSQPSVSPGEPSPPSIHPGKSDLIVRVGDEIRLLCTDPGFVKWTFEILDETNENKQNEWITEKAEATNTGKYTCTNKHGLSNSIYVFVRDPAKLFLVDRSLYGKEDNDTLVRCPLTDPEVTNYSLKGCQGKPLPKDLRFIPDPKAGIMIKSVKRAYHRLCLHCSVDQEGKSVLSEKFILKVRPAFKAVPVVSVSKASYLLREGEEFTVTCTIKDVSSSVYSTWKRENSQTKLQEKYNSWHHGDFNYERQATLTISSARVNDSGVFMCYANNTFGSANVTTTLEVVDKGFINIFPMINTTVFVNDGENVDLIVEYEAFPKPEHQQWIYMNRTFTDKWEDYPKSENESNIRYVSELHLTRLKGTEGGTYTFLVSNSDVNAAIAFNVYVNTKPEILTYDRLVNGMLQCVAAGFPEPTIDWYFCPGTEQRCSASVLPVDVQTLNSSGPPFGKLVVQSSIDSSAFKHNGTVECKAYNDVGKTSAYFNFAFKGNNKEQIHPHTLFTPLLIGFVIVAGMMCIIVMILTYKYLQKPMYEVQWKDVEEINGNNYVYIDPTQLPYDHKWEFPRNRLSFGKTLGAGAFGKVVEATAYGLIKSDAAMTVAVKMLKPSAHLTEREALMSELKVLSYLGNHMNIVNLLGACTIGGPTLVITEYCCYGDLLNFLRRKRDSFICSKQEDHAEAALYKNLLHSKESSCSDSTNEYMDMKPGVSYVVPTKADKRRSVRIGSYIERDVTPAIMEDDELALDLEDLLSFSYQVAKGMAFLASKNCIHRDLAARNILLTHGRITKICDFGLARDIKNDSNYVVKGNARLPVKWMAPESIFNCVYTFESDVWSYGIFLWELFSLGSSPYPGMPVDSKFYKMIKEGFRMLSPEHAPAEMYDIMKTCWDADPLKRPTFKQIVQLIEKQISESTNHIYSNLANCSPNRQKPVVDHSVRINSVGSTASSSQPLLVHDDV

[21] = molecular target: Tyrosine-protein kinase Fer (Homo sapiens) (UniProt P16591); details: Compound concentration 1000.0 nM
[22] = molecular target: MAP kinase-activated protein kinase 5 (Homo sapiens) (UniProt Q8IW41); details: Compound concentration 1000.0 nM
[23] = system: Mast/stem cell growth factor receptor Kit (Homo sapiens), P10721 [A829P]; details: Compound concentration 1000.0 nM
[24] = molecular target: Serine/threonine-protein kinase PknB (Mycobacterium tuberculosis) (UniProt P9WI81); details: Compound concentration 1000.0 nM
Chain of Serine/threonine-protein kinase PknB (Mycobacterium tuberculosis) (P9WI81 whole entry): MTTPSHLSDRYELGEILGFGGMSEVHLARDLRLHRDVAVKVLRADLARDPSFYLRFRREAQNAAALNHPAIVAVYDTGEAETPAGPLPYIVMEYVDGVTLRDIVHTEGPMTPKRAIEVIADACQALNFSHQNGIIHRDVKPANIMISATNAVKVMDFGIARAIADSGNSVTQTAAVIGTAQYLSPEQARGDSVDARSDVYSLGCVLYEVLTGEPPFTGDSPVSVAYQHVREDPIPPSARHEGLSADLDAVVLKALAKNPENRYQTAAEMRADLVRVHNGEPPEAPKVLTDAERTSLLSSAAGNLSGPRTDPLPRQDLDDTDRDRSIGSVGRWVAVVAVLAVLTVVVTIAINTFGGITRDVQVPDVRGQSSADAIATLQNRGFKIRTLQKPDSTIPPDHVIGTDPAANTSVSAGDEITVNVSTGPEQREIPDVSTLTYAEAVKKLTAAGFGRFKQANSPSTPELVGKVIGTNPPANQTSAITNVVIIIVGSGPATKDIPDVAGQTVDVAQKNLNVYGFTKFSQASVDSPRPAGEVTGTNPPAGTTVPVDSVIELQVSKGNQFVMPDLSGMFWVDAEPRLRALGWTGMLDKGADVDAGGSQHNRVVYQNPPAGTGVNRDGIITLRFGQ

[25] = molecular target: Maternal embryonic leucine zipper kinase (Homo sapiens) (UniProt Q14680); details: Compound concentration 1000.0 nM
[26] = molecular target: Phosphatidylinositol 4-phosphate 3-kinase C2 domain-containing subunit beta (Homo sapiens) (UniProt O00750); details: Compound concentration 1000.0 nM
Chain of Phosphatidylinositol 4-phosphate 3-kinase C2 domain-containing subunit beta (Homo sapiens) (O00750 whole entry, the tested form may be a part): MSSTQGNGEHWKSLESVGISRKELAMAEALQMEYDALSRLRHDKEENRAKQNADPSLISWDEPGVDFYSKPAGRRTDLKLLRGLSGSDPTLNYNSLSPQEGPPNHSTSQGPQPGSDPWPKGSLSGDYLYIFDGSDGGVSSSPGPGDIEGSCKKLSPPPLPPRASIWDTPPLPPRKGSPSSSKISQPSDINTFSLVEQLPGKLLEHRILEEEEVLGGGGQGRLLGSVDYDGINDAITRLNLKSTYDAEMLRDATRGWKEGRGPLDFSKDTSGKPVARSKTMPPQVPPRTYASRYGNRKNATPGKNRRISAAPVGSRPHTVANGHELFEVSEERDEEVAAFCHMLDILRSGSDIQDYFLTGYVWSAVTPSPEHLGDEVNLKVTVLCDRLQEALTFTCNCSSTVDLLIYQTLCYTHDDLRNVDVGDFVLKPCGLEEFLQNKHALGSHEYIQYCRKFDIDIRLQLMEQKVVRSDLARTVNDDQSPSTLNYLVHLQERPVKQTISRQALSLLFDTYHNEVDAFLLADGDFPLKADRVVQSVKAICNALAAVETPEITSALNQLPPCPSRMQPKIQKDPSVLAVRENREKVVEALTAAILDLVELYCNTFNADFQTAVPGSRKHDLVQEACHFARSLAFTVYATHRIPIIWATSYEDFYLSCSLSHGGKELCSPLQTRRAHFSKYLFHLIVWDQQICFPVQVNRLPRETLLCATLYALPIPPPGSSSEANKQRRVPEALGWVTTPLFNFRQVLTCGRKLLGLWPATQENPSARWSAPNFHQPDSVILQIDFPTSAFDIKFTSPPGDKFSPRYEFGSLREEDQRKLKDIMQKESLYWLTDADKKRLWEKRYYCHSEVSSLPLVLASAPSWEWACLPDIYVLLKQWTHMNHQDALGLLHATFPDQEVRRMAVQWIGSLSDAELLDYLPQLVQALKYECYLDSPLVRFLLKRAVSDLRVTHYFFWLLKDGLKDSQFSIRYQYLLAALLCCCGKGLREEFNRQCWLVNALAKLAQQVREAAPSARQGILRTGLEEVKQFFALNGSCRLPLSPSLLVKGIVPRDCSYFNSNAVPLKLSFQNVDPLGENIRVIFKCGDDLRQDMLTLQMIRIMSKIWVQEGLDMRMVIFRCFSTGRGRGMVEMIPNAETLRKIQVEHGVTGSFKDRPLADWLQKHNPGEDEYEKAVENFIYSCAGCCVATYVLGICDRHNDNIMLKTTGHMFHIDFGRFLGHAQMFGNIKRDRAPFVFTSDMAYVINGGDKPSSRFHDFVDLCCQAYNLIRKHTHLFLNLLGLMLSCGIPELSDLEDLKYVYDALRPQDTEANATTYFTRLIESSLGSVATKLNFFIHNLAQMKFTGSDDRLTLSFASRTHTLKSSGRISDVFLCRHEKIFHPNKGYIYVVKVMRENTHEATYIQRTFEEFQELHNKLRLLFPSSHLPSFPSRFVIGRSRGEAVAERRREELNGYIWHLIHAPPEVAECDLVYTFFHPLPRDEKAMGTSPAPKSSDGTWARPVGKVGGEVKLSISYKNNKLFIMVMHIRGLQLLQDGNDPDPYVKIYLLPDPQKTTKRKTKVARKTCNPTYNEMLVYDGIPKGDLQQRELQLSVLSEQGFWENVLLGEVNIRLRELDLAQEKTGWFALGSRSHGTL

[27] = system: Epidermal growth factor receptor (Homo sapiens), P00533 [L861Q]; details: Compound concentration 1000.0 nM
[28] = molecular target: Serine/threonine-protein kinase TAO3 (Homo sapiens) (UniProt Q9H2K8); details: Compound concentration 1000.0 nM
[29] = molecular target: LIM domain kinase 2 (Homo sapiens) (UniProt P53671); details: Compound concentration 1000.0 nM
[30] = molecular target: Serine/threonine-protein kinase PAK 2 (Homo sapiens) (UniProt Q13177); details: Compound concentration 1000.0 nM
Chain of Serine/threonine-protein kinase PAK 2 (Homo sapiens) (Q13177 whole entry): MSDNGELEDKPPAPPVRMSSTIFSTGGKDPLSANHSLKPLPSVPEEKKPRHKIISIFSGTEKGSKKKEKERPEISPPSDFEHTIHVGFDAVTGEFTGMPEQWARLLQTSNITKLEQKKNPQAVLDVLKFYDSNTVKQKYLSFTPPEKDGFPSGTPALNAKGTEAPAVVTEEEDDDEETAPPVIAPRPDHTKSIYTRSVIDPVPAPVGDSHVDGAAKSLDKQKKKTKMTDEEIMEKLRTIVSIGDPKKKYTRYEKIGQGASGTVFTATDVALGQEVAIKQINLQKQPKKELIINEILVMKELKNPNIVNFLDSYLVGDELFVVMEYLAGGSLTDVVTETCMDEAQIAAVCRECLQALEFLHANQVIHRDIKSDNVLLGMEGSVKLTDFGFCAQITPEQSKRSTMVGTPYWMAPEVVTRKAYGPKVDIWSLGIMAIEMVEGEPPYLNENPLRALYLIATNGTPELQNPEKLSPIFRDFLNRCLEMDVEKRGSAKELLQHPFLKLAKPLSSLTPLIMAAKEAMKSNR

[31] = molecular target: Mitogen-activated protein kinase kinase kinase kinase 2 (Homo sapiens) (UniProt Q12851); details: Compound concentration 1000.0 nM
[32] = molecular target: Rhodopsin kinase GRK1 (Homo sapiens) (UniProt Q15835); details: Compound concentration 1000.0 nM
[33] = molecular target: Casein kinase I isoform delta (Homo sapiens) (UniProt P48730); details: Compound concentration 1000.0 nM
[34] = molecular target: Cyclin-dependent kinase 8 (Homo sapiens) (UniProt P49336); details: Compound concentration 1000.0 nM
[35] = molecular target: Serine/threonine-protein kinase 17B (Homo sapiens) (UniProt O94768); details: Compound concentration 1000.0 nM
[36] = molecular target: MAP kinase-interacting serine/threonine-protein kinase 1 (Homo sapiens) (UniProt Q9BUB5); details: Compound concentration 1000.0 nM
[37] = molecular target: Protein kinase C epsilon type (Homo sapiens) (UniProt Q02156); details: Compound concentration 1000.0 nM
[38] = molecular target: Tyrosine-protein kinase Srms (Homo sapiens) (UniProt Q9H3Y6); details: Compound concentration 1000.0 nM
[39] = molecular target: Mitogen-activated protein kinase kinase kinase 2 (Homo sapiens) (UniProt Q9Y2U5); details: Compound concentration 1000.0 nM
[40] = system: Hepatocyte growth factor receptor (Homo sapiens), P08581 [Y1235D]; details: Compound concentration 1000.0 nM
[41] = molecular target: Interleukin-1 receptor-associated kinase 1 (Homo sapiens) (UniProt P51617); details: Compound concentration 1000.0 nM
[42] = molecular target: Ephrin type-B receptor 3 (Homo sapiens) (UniProt P54753); details: Compound concentration 1000.0 nM
[43] = molecular target: Serine/threonine-protein kinase Nek11 (Homo sapiens) (UniProt Q8NG66); details: Compound concentration 1000.0 nM
[44] = system: Tyrosine-protein kinase ABL1 (Homo sapiens), P00519 [T315I]; details: Compound concentration 1000.0 nM

`CC1=C(C#N)C(c2ccc3[nH]nc(C)c3c2)C(C#N)=C(C)N1` [BAY-474] was tested, and the inhibition [1] was 15.6%, the inhibition [2] was 1% and the inhibition [3] was -1%. The inhibition at 90 min, 10 µM [4] was 0% (not active), the inhibition [5] was 17% and the inhibition [6] was -3%. It also gave an inhibition [7] of 52%, an inhibition [8] of -10% and an inhibition [9] of 5%. The inhibition [10] was 8%, the inhibition [11] was -5% and the inhibition [12] was -6%. For the same molecule, the inhibition [13] was 4%, the inhibition [14] was 4% and the inhibition [15] was -9%.
`CC1=C(C#N)[C@@H](c2ccc3[nH]nc(C)c3c2)C(C#N)=C(c2ccc(Cl)cc2)N1` [BAY-827] gave a residual activity [16] of 100%, a Ki [17] of 10 µM and a residual activity [18] of 91.2%. The residual activity [19] was 100%, the residual activity [20] was 100% and the residual activity [21] was 97.9%. It also gave a residual activity [22] of 100%, a residual activity [23] of 100% and a residual activity [24] of 100%. For the same molecule, the residual activity [25] was 100%, the residual activity [26] was 100% and the residual activity [27] was 100%. For the same molecule, the residual activity [28] was 100%, the residual activity [29] was 91.1% and the residual activity [30] was 100%. For the same molecule, the residual activity [31] was 100%, the residual activity [32] was 65.5% and the residual activity [33] was 100%. For the same molecule, the residual activity [34] was 93.2%, the residual activity [35] was 100% and the residual activity [36] was 100%. It also gave a residual activity [37] of 100%, a residual activity [38] of 92.7% and a residual activity [39] of 72.2%. For the same molecule, the residual activity [40] was 52.6%, the residual activity [41] was 100% and the residual activity [42] was 100%. The residual activity [43] was 62.4% and the residual activity [44] was 88.1%.

— ChEMBL document CHEMBL4507263, “Data for DCP probe BAY-474” (2021)
